Data: ChEMBL document CHEMBL1201862, “PubChem BioAssay data set” (2004)
Where a name gives a salt, the structure may show the parent alone. Active and inactive are the calls of the source.

How the values were obtained:
Caspase-6 = Caspase-6 (Homo sapiens, UniProt P55212); assay: human caspase-6 inhibitors, dose response, biochemical, VEID-R110 fluorescence, cherry-pick (AID 720632)
Caspase-8 = Caspase-8 (Homo sapiens, UniProt Q14790); assay: caspase-8 inhibition counter-screen, dose response, selectivity assay for caspase-6 inhibitor project, biochemical, Z-IETD-R110 fluorescence, cherry-picked samples (AID 743294)
Caspase-7 = Caspase-7 (Homo sapiens, UniProt P55210); assay: human caspase-7 inhibitors, dose response, selectivity assay for caspase-6 inhibitor project, biochemical, DEVD-R110 fluorescence, cherry-pick (AID 743295)
Major prion protein = Major prion protein (Homo sapiens, UniProt P04156); type: functional, cell-based
cells [1] = assay: cells
[2] = target: T1, Oxysterols receptor LXR-beta (Homo sapiens, UniProt P55055); type: functional, cell-based;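 further: agonist activity at LXR measured by a cell-based luminescence readout across a dose range, run as a counterscreen for daf-12 agonists; HEK293 cells with Gal4-LXR fusion and GAL4-driven luciferase reporter; potency for activation of Gal4-LXR reporter so compounds are agonists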
T1 sequence (P55055 whole entry): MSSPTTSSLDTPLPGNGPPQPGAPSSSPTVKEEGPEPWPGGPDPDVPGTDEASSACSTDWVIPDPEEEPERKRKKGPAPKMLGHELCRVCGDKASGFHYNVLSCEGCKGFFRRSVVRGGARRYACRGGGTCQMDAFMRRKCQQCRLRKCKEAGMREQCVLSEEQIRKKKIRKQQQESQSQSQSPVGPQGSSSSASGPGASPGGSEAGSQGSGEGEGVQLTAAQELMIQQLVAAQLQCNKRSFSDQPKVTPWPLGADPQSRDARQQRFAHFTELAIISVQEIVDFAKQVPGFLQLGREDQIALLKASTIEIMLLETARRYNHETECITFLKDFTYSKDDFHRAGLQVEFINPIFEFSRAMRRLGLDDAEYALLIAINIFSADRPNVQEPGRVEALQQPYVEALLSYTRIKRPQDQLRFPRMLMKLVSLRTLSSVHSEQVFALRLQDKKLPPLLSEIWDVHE

[3] = target: NAD-dependent protein deacylase sirtuin-5, mitochondrial (Homo sapiens, UniProt Q9NXA8); assay: SIRT5 deacylase inhibitors, dose response, biochemical, fluorescence imaging, cherry-pick, set 6 (AID 720597)
[4] = HEK293T cell cytotoxicity, dose response, cytotoxicity control, luminescence plate reader, powder samples, set 4 (AID 651863); type: functional, cell-based; conditions: HEK293
[5] = TRPM1 promoter luciferase reporter signal decrease, dose response, MITF inhibitor project, cell-based, SK-MEL-5, dry powder, set 8 (AID 624430); type: functional
[6] = MITF: Counter assay: A375 proliferation Measured in Cell-Based System Using Plate Reader - 2084-03_Inhibitor_Dose_DryPowder_Activity_Set8.; type: functional; conditions: A-375
[7] = MITF Orthogonal Assay: SK-MEL-5 CTG Assay Measured in Cell-Based System Using Plate Reader - 2084-02_Inhibitor_Dose_DryPowder_Activity_Set7.; type: functional
[8] = target: Heat shock protein HSP 90-alpha (Homo sapiens, UniProt P07900); type: functional, organism-based
[9] = C. albicans growth with fluconazole, confirmation, fluorescence, retest (AID 2467); type: functional, cell-based
[10] = NIH-3T3 fibroblast cytotoxicity, dose response, cytotoxicity control, cell-based, fluorescence, Alamar Blue, secondary assay (AID 2327); type: functional;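 further: NIH-3T3 mouse fibroblasts cultured with fluconazole at 8 µg/mL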
[11] = A549 cell cytotoxicity, dose response, cytotoxicity control, cherry-picks, 26 µM top dose (AID 1053119); type: functional, cell-based
[12] = target: Potassium channel subfamily K member 3 (Homo sapiens, UniProt O14649); assay: TASK1 (KCNK3) potassium channel inhibitors, SAR follow-up, CHO cells, FluxOR thallium flux (AID 652212); type: functional
HEK293 [13] = assay: cells; conditions: Homo sapiens
HEK293 [14] = assay: NOD2 signaling inhibitors in MDP-stimulated cells, cell-based, uHTS, luminescence (AID 2001); type: functional; conditions: Homo sapiens
HEK293 [15] = assay: cells; type: functional, cell-based; conditions: Homo sapiens
HEK293 [16] = assay: cells; type: functional, cell-based; conditions: Homo sapiens; remark: listed apart in the source
[17] = inhibitors of intracellular T. cruzi replication, confirmation, NIH3T3 host cells, beta-gal luminescence (AID 2044); type: functional, cell-based;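 further: intracellular parasites grown in NIH/3T3 mouse fibroblasts as host cells; luminescent beta-galactosidase reporter signal from transgenic T. cruzi replicating inside host cells; inhibitors lower the luminescence signal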
[18] = human group III sPLA2 inhibitors, dose response, biochemical, QFRET, IC50 (AID 743457);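 further: green fluorescence rise as the enzyme cleaves BODIPY PC-A2 in liposomes; potency for inhibition of the enzyme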
[19] = cytotoxicity toward NIH3T3 fibroblasts, dose response, counter-screen, cell-based, ATP luminescence, mouse fibroblasts (AID 2010); type: functional;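 further: cells exposed to compound for about 90 hours before reading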
HEK293 [20] = assay: NOD1 signaling inhibitors, primary screen, cell-based, luminescence, uHTS (AID 1578); type: functional; conditions: Homo sapiens
HEK293 [21] = assay: cells; type: functional, cell-based; conditions: Homo sapiens; remark: listed apart in the source
[22] = target: Metabotropic glutamate receptor 5 (Rattus norvegicus, UniProt P31424); assay: Identification of a glycine sulfonamide based non-MPEP site positive allosteric potentiator (PAM) of mGlu5 (calcium_assay).; type: functional
[23] = HeLa 4N DNA content increase, dose response, cell-based, IC50 (AID 1117351); type: functional
[24] = HeLa 2N DNA content increase, dose response, cell-based, IC50 (AID 1117349); type: functional
cells [25] = type: functional, cell-based; conditions: INS-1E

In the case of `CCCCN(C(=O)c1cccc(-n2cccc2)c1)c1c(N)n(Cc2ccccc2)c(=O)[nH]c1=O`, the AC50 (Caspase-6) is reported as 4.26 µM (active), the AC50 (Caspase-8) is reported as 46.1 µM (active) and the AC50 (Caspase-7) is reported as > 22 µM (inactive).
In the case of `CCOC(=O)CSc1nc(C(C)(C)C)nc2ccccc12`, the IC50 (Major prion protein) is reported as 6.98 µM (active) and the IC50 (cells [1]) is reported as > 138 µM (inactive).
In the case of `COCCNc1nc(-c2cc3ccccc3o2)cs1`, the EC50 [2] is reported as > 67.5 µM (inactive).
With `C[C@H](CO)N1C[C@H](C)[C@H](CN(C)Cc2ccncc2)Oc2ncc(C#CCN(C)C)cc2C1=O` the AC50 [3] was > 30 µM (inactive).
For `CCOC(=O)C(C(=O)OCC)c1cc(CNS(=O)(=O)c2ccc(C)cc2C)c2ccccc2n1`, the AC50 [4] was > 52 µM (inactive).
For `CN1CCN(C2=C(Nc3ccc(I)cc3)C(=O)c3ccccc3C2=O)CC1`, the AC50 [5] was 7.32 µM (active), the AC50 [6] was 26 µM (active) and the AC50 [7] was 8.33 µM (active).
With `Cc1ccc(O)c(-c2cc(-c3cccc(Br)c3)[nH]n2)c1` the AC50 [8] was 3.01 µM (active), the EC50 [9] was 4.48 µM (active) and the EC50 [10] was 16.3 µM (active). The AC50 [11] was 37.3 µM (active).
With `CCOc1ccccc1NC(=O)c1cccc(NC(=O)c2ccc(OC)cc2)c1` the IC50 [12] was 0.3 µM (active).
With `Fc1ccc(NC(S)=Nc2nccs2)cc1` the IC50 (HEK293 [13]) was > 20 µM (inactive), the IC50 (HEK293 [14]) was 6.34 µM (inactive) and the IC50 (HEK293 [15]) was > 20 µM (inactive). For the same molecule, the IC50 (HEK293 [16]) was > 20 µM (inactive), the EC50 [17] was 2.79 µM (active) and the IC50 [18] was > 122 µM (inactive). The EC50 [19] was > 60 µM (inconclusive), the EC50 (HEK293 [20]) was 5.3 µM (active) and the IC50 (HEK293 [21]) was > 20 µM (inactive).
With `CC(C)(C)NC(=O)CN(c1cc(C(F)(F)F)ccc1Cl)S(C)(=O)=O` the EC50 [22] was > 30 µM (inactive).
In the case of `Cc1ccccc1C(OCCN(C)C)c1ccccc1` (centres undefined) [ORPHENADRINE CITRATE], the IC50 [23] is reported as > 10 µM (inactive), the IC50 [24] is reported as > 10 µM (inactive) and the IC50 (cells [25]) is reported as > 33.3 µM (inactive).
